# Data reported in PubChem BioAssay AID1259408 (Genetic Toxicology Data Bank (GENE-TOX), 2018).
# The source made the active and inactive calls. The rule behind the calls is not given here.
# Test system: GENE-TOX genotoxicity assays, various organisms and cells
# Assay: GENE-TOX mutagenicity studies
# Conditions: for call: Assay Type: In vivo carcinogenicity studies
# [1] = Species/Cell Type: Drosophila melanogaster, Assay Type: Sex-linked recessive lethal gene mutation, Assay Code: SRL+, Evaluation Type: Evaluation A (Pre-1980)
# [2] = Species/Cell Type: Human, Assay Type: Sister-chromatid exchange (SCE) in vitro, Assay Code: SC1+D, Dose Response: With dose response, Evaluation Type: Evaluation B (Post-1980)
# [3] = Species/Cell Type: Schizosaccharomyces pombe, Assay Type: Reverse gene mutation, Assay Code: YEZ+, Evaluation Type: Evaluation A (Pre-1980)
# [4] = Species/Cell Type: Salmonella typhimurium (one or more of the five standard strains: TA98, TA100, TA1535, TA1537, and TA1538), Assay Type: Histidine reverse gene mutation, Ames assay, Assay Code: SAL+*, Activation: With metabolic activation, Evaluation Type: Evaluation A (Pre-1980)
# [5] = Species/Cell Type: Salmonella typhimurium (one or more of the five standard strains: TA98, TA100, TA1535, TA1537, and TA1538), Assay Type: Histidine reverse gene mutation, Ames assay, Assay Code: SALT, Evaluation Type: Evaluation A (Pre-1980)
# [6] = Species/Cell Type: Salmonella typhimurium (one or more of the five standard strains: TA98, TA100, TA1535, TA1537, and TA1538), Assay Type: Histidine reverse gene mutation, Ames assay, Assay Code: SAL+, Evaluation Type: Evaluation A (Pre-1980)
smiles,measurement,setting,value
CCOP(=S)(OCC)Oc1ccc(S(C)=O)cc1 (centres undefined),mutagenic call,"Species/Cell Type: Bacillus subtilis (H17 vs M45), Assay Type: Rec-assay, spot test, DNA effects (bacterial DNA repair), Assay Code: REWT, Evaluation Type: Evaluation A (Pre-1980)",no conclusion
same,mutagenic call,"Species/Cell Type: Drosophila melanogaster, Assay Type: Sex-linked recessive lethal gene mutation, Assay Code: SRL-, Evaluation Type: Evaluation A (Pre-1980)",inactive; negative
same,mutagenic call,"Species/Cell Type: Escherichia coli WP2 UVRA, Assay Type: Tryptophan reverse gene mutation, Assay Code: WPU-*, Activation: With metabolic activation, Evaluation Type: Evaluation A (Pre-1980)",inactive; negative
same,mutagenic call,"Species/Cell Type: Escherichia coli polA (W3119 vs P3478), Assay Type: Rec-assay, DNA effects (bacterial DNA repair), Assay Code: RE1T, Evaluation Type: Evaluation A (Pre-1980)",no conclusion
same,mutagenic call,"Species/Cell Type: Human diploid fibroblasts, Assay Type: Unscheduled DNA synthesis (UDS) in vitro, DNA effects, Assay Code: UDH-, Evaluation Type: Evaluation A (Pre-1980)",inactive; negative
same,mutagenic call,"Species/Cell Type: Nonhuman, Assay Type: Sister-chromatid exchange (SCE) in vitro, Assay Code: SC2T, Evaluation Type: Evaluation B (Post-1980)",no conclusion
same,mutagenic call,"Species/Cell Type: Saccharomyces cerevisiae, Assay Type: Mitotic recombination or gene conversion, Assay Code: YEH-, Evaluation Type: Evaluation A (Pre-1980)",inactive; negative
same,mutagenic call,"Species/Cell Type: Salmonella typhimurium (one or more of the five standard strains: TA98, TA100, TA1535, TA1537, and TA1538), Assay Type: Histidine reverse gene mutation, Ames assay, Assay Code: SAL-, Evaluation Type: Evaluation A (Pre-1980)",inactive; negative
CCCC=O,mutagenic call,"Species/Cell Type: Human lymphocytes, Assay Type: Sister-chromatid exchange (SCE) in vitro, Assay Code: SCL+, Evaluation Type: Evaluation B (Post-1980)",active; positive
same,mutagenic call,"Species/Cell Type: Human, Assay Type: Sister-chromatid exchange (SCE) in vitro, Assay Code: SC1+, Evaluation Type: Evaluation B (Post-1980)",active; positive
CN(C)N=Nc1c(Br)cc(Br)cc1Br,mutagenic call,[1],active; positive
same,mutagenic call,"Species/Cell Type: Saccharomyces cerevisiae, Assay Type: Mitotic recombination or gene conversion, Assay Code: YEC+, Evaluation Type: Evaluation A (Pre-1980)",active; positive
O=C1c2c(O)ccc(O)c2C(=O)c2c(NCCNCCO)ccc(NCCNCCO)c21,mutagenic call,"Species/Cell Type: Nonhuman, Assay Type: Sister-chromatid exchange (SCE) in vitro, Assay Code: SC2+, Evaluation Type: Evaluation B (Post-1980)",active; positive
CNc1nncc2ccccc12,mutagenic call,[2],active; positive
same,mutagenic call,"Species/Cell Type: Nonhuman, Assay Type: Sister-chromatid exchange (SCE) in vivo, Assay Code: SC3+, Evaluation Type: Evaluation B (Post-1980)",active; positive
CN(C)C(=S)SC(=S)N(C)C,mutagenic call,"Species/Cell Type: Mammalian polychromatic erythrocytes, Assay Type: Micronucleus test, chromosome aberrations, Assay Code: MNT+U, Dose Response: Unconfirmed positive response, Evaluation Type: Evaluation B (Post-1980)",active; positive
CCOS(=O)(=O)CC,mutagenic call,"Species/Cell Type: Arabidopsis species, Assay Type: Gene mutation, Assay Code: ARM+, Evaluation Type: Evaluation A (Pre-1980)",active; positive
same,mutagenic call,"Species/Cell Type: Hordeum vulgare (barley), Assay Type: Chromosome aberrations, Assay Code: HOC-, Evaluation Type: Evaluation A (Pre-1980)",inactive; negative
same,mutagenic call,"Species/Cell Type: Hordeum vulgare (barley), Assay Type: Gene mutation, Assay Code: HOM+D, Dose Response: With dose response, Evaluation Type: Evaluation A (Pre-1980)",active; positive
CC1CCOS1(=O)=O (centres undefined),mutagenic call,[3],active; positive
CCOC(=O)N(OC(C)=O)C(C)=O,mutagenic call,[1],active; positive
same,mutagenic call,"Species/Cell Type: Drosophila melanogaster, Sex: Male, Assay Type: Heritable translocation test, chromosome aberrations, Assay Code: DHTT, Evaluation Type: Evaluation A (Pre-1980)",no conclusion
Cc1ccc2c(C)c3ccc4ccccc4c3nc2c1,mutagenic call,[4],active; positive
O[C@@H]1C=Cc2cc3ccc4cccc5ccc(c2[C@@H]1O)c3c45,mutagenic call,"Species/Cell Type: Chinese hamster lung (V79) cells, Assay Type: Forward gene mutation at the HPRT or ouabain locus, Assay Code: V79-, Evaluation Type: Evaluation A (Pre-1980)",inactive; negative
same,mutagenic call,[5],no conclusion
CC(C)Cc1ccc(C(C)C(=O)O)cc1 (centres undefined),mutagenic call,"Species/Cell Type: Human lymphocytes, Assay Type: Sister-chromatid exchange (SCE) in vivo, Assay Code: SCY+, Evaluation Type: Evaluation B (Post-1980)",active; positive
Cc1cc2ccc(F)cc2c2ccc3ccccc3c12,mutagenic call,[5],no conclusion
OCC(S)CS (centres undefined),mutagenic call,"Species/Cell Type: Escherichia coli polA (W3119 vs P3478), Assay Type: Rec-assay, DNA effects (bacterial DNA repair), Assay Code: RE1-, Evaluation Type: Evaluation A (Pre-1980)",inactive; negative
O=C1NC(c2ccc([N+](=O)[O-])s2)Nc2ccccc21 (centres undefined),mutagenic call,[6],active; positive
O=P(N1CC1)(N1CC1)N1CC1,mutagenic call,[1],active; positive
same,mutagenic call,"Species/Cell Type: Drosophila melanogaster, Sex: Male, Assay Type: Heritable translocation test, chromosome aberrations, Assay Code: DHT+, Evaluation Type: Evaluation A (Pre-1980)",active; positive
same,mutagenic call,"Species/Cell Type: Human lymphocytes or leukocytes, Assay Type: Chromosome aberrations in vitro, Assay Code: CY7+, Evaluation Type: Evaluation A (Pre-1980)",active; positive
same,mutagenic call,"Species/Cell Type: Human lymphocytes, Assay Type: Sister-chromatid exchange (SCE) in vitro, Assay Code: SCL+D, Dose Response: With dose response, Evaluation Type: Evaluation B (Post-1980)",active; positive
same,mutagenic call,[2],active; positive
same,mutagenic call,"Species/Cell Type: Mammalian germ cells, Sex: Male, Assay Type: Chromosome aberrations in vivo, Assay Code: CY9T, Evaluation Type: Evaluation A (Pre-1980)",no conclusion
same,mutagenic call,"Species/Cell Type: Mouse, Sex: Male, Assay Type: Heritable translocation test, chromosome aberrations, Assay Code: HTT+, Evaluation Type: Evaluation A (Pre-1980)",active; positive
same,mutagenic call,"Species/Cell Type: Neurospora crassa, Assay Type: Forward gene mutation, Assay Code: NEF+, Evaluation Type: Evaluation A (Pre-1980)",active; positive
same,mutagenic call,"Species/Cell Type: Nonhuman, Assay Type: Chromosome aberrations in vitro, Assay Code: CY&+, Evaluation Type: Evaluation A (Pre-1980)",active; positive
same,call,"Species/Cell Type: Nonhuman, Assay Code: CCGT, Evaluation Type: Evaluation A (Pre-1980)",no conclusion
same,mutagenic call,"Species/Cell Type: Nonhuman, Assay Type: Sister-chromatid exchange (SCE) in vitro, Assay Code: SC2+D, Dose Response: With dose response, Evaluation Type: Evaluation B (Post-1980)",active; positive
same,mutagenic call,"Species/Cell Type: Rodents, Sex: Male, Assay Type: Dominant lethal test, Assay Code: DLT+, Evaluation Type: Evaluation A (Pre-1980)",active; positive
same,mutagenic call,[3],active; positive
same,mutagenic call,"Species/Cell Type: Vicia faba, Assay Type: Chromosome aberrations, Assay Code: VIC+, Evaluation Type: Evaluation A (Pre-1980)",active; positive
O[C@@H]1[C@H](O)[C@@H](O)c2cc3ccc4cccc5ccc(c2[C@@H]1O)c3c45,mutagenic call,"Species/Cell Type: Chinese hamster lung (V79) cells, Assay Type: Forward gene mutation at the HPRT or ouabain locus, Assay Code: V79-*, Activation: With metabolic activation, Evaluation Type: Evaluation A (Pre-1980)",inactive; negative
O=NN1CC=CCC1,mutagenic call,"Species/Cell Type: Drosophila melanogaster, Assay Type: Aneuploidy, partial sex chromosome loss, chromosome aberrations, Assay Code: DAPT, Evaluation Type: Evaluation A (Pre-1980)",no conclusion
same,mutagenic call,"Species/Cell Type: Drosophila melanogaster, Assay Type: Aneuploidy, whole sex chromosome loss, chromosome aberrations, Assay Code: DACT, Evaluation Type: Evaluation A (Pre-1980)",no conclusion
same,mutagenic call,[1],active; positive
same,mutagenic call,[6],active; positive
CCN(Cc1ccc(CN(CC)C(=O)C(Cl)Cl)cc1)C(=O)C(Cl)Cl,mutagenic call,"Species/Cell Type: Human, Sex: Male, Assay Type: Sperm morphology, Assay Code: SPH+, Evaluation Type: Evaluation A (Pre-1980)",active; positive
CN=[N+](C)[O-],mutagenic call,[1],active; positive
same,mutagenic call,"Species/Cell Type: Mouse (BALB/c-3T3) cells, Assay Type: Cell transformation, Assay Code: CTB-, Evaluation Type: Evaluation A (Pre-1980)",inactive; negative
same,call,"Species/Cell Type: Nonhuman, Assay Code: CCG+, Evaluation Type: Evaluation A (Pre-1980)",active; positive
same,mutagenic call,[4],active; positive
same,mutagenic call,"Species/Cell Type: Salmonella typhimurium, Assay Type: Forward and reverse gene mutation, host-mediated assay, Assay Code: HMA+, Evaluation Type: Evaluation A (Pre-1980)",active; positive
